Reference: patent US7538090B1, “Exogenous surfactant protein B mimic” (Los Angeles Biomedical Research Institute at Harbor-UCLA …, priority 2004, dated 2009)
“Also recorded” adds a separate entry of the source.

What was measured:
lavaged rat model of RDS = test: Oxygenation response in lavaged rat model of RDS; assay type: in vivo; conditions: for in vivo activity in the rat RDS model system: FIGS. 6A and 6B (oxygenation and dynamic compliance)
Source text: FIG. 6A illustrates an example of an oxygenation response of a lavaged rat model of RDS comparing INFASURF™, a known effective animal based (cow lung lavage that includes surfactant lipids and native Cow SP-B and SP—C proteins) supplement formulation (—◯—), pig native surfactant B in INFASURF™ lipids (—Δ—), Mini-B peptide in simulated INFASURF™ lipids (—▪—), the C-terminal domain of SP-B (residues 63-78) in the oxidized (--♦--) and reduced format (—∇--), a serine derivative the C-terminal domain of SP-B (residues 63-78) with cationic arginines (R) replaced with serine residues, in oxidized (—◯--) and (—∇—) format, the N-terminal domain of SP-B (residues 11 to 25 of native SP-B) in the monomer (—□—) and a dimer (—●--) conformation and ISPL alone (—Δ—). […] A Mini-B construct also compares favorably with the commercial preparation INFASURF™ that contains both the native SP-B and SP—C protein.
(§1) The activity of a Mini-B construct is very similar to that of the commercial preparation INFASURF™ that includes equimolar amounts of native SP-B in native lung surfactant lipids and native SP—C proteins typically used in present RDS therapies.

[1] = system: Rat RDS animal model system; test: Dynamic compliance measurements in the Rat RDS animal model system; assay type: in vivo; conditions: peptide in simulated INFASURF lipids (ISPL), FIG. 6B
Source text: FIG. 6B represents dynamic compliance measurements (a measure of lung mechanical plasticity) in the Rat RDS animal model system comparing INFASURF™ replacement formulation, pig native surfactant B in INFASURF™ lipids (—◯—), a Mini-B construct in simulated INFASURF™ lipids (—▪—), the C-terminal domain of SP-B (residues 63-78) in the oxidized (--♦--) and reduced (—∇--) format, a serine derivative the C-terminal domain of SP-B (residues 63-78) with cationic arginines (R) replaced with serine residues, in oxidized (—◯--) and (—∇—) format, the N-terminal domain of SP-B (residues 11 to 25 of native SP-B) in the monomer (—□—) and dimer (—●--) conformation and ISPL alone (—Δ—).
as §1

[2] = Langmuir trough surface activity (surface pressure upon compression, respreading); assay type: physicochemical; conditions: in ISPL lipids vs lipids alone, FIG. 8, 9
Source text: Langmuir trough measurements of a Mini-B construct in ISPL lipids are represented in FIG. 8. The peptide at two different concentrations is compared to lipids […]. Lipids alone on the Langmuir trough show very little change in surface pressure with compression of the air-water interface film. […] Higher concentrations of a Mini-B construct in the lipids further enhance the surface activity of the preparation and show the characteristic chances in surface pressure as a function of compression/decompression of the lipid-peptide surface film that are associated with optimal in vitro activity typical of lung surfactant preparations containing SP-B native protein.
FIG. 9 illustrates Langmuir trough measurements of a Mini-B construct in ISPL. The construct was measured at a single concentration to show the consistent pressure dependent reproducibility of the construct in the lipids that is an important criteria of an effective lung surfactant dispersion. Lipids alone on the Langmuir trough show very little change in surface pressure with compression of the air-water interface film. […]

[3] = Surface shear viscosity measurements in ISPL lipid dispersion; assay type: physicochemical; conditions: over surface pressures and compression-expansion cycles, FIG. 7
Source text: Surface shear viscosity measurements of a Mini-B construct in a simulated INFASURF™ lipid dispersion ISPL (cow lung lavage lipids) is represented in FIG. 7.

[4] = Brewster Angle Microscope images of monolayer surfaces on the Langmuir trough; assay type: physicochemical; conditions: Mini-B-ISPL lipids vs lipids alone; BAM images, FIG. 11
Source text: Brewster Angle Microscope images of monolayer surfaces of Mini-B-ISPL lipids versus lipids alone on the Langmuir trough as a fimcfion of surface pressure is represented in FIG. 11. […] This Mini-B induced lipid aggregation in monolayers is typical of the effect of native surfactant protein B and surfactant B type peptides.
Brewster Angle Microscope images of monlayer surfaces of Mini-B-synthetic cow lung lipids compared with the commercial surfactant preparation INFASURF™ that contains native SP-B and SP-C proteins is represented in FIG. 12. Preparations containing Mini-B aggregate lipids were similar to the commercial surfactant preparation.

B11-25: N-terminal domain of SP-B (residues 11 to 25 of native SP-B) (CRALIKRIQAMIPKG; Pulmonary surfactant-associated protein B; UniProt P07988 211-225, looked up, fragment) [reference compound]
in vivo activity in the rat RDS model system (lavaged rat model of RDS): relatively ineffective in vivo activity

B63-78: C-terminal domain of SP-B (residues 63-78) (GRMLPQLVCRLVLRCS; Pulmonary surfactant-associated protein B; UniProt P07988 263-278, looked up, fragment) [reference compound]
in vivo activity in the rat RDS model system (lavaged rat model of RDS): relatively ineffective in vivo activity

CWLCRALIKRIQAMIPKGGRMLPQLVCRLVLRCS [Mini-B, disulfide stabilized 34 residue cyclic peptide joining SP-B residues 8 to 25 and 63 to 78]
in vivo activity in the rat RDS model system (lavaged rat model of RDS): exceeds that observed for native pig SP-B in synthetic surfactant lipids | oxygenation response (lavaged rat model of RDS; lavaged rat model of RDS, peptide in simulated INFASURF lipids (ISPL), FIG. 6A): outperforms all of the peptide segments of Mini-B separately; also recorded: closely parallels the oxygenation response that is observed for full-length native SP-B protein | dynamic compliance [1]: performs very nearly as well as the commercial preparation | surface activity (surface pressure as a function of film compression) [2]: enhances the surface activity | shear surface viscosity [3]: remains constant at a large range of surface pressures | lipid aggregation in monolayers [4]: aggregate
